Reference: ChEMBL document CHEMBL3112540, “Synthesis of halogenated 4-quinolones and evaluation of their antiplasmodial activity” (Bioorg Med Chem Lett, 2014)
Active and inactive are the calls of the source. The rule behind the calls is not given here.

How the values were obtained:
[1] = system: Aspergillus flavus; experiment: Antimicrobial activity against Aspergillus flavus; type: functional, organism-based
[2] = system: Candida albicans; experiment: Antimicrobial activity against Candida albicans; type: functional, organism-based
[3] = system: Plasmodium falciparum; experiment: Antiplasmodial activity chloroquine-sensitive Plasmodium falciparum NF54 by lactate dehydrogenase assay; type: functional, organism-based
[4] = system: Escherichia coli; experiment: Antimicrobial activity against Escherichia coli; type: functional, organism-based
[5] = system: Staphylococcus aureus; experiment: Antimicrobial activity against Staphylococcus aureus; type: functional, organism-based
[6] = system: CHO; experiment: Cytotoxicity against CHO cells by MTT assay; type: cell-based; conditions: Cricetulus griseus
[7] = in vitro; conditions: hamster
Description: Selectivity index, ratio of IC50 for CHO cells to IC50 for chloroquine-sensitive Plasmodium falciparum NF54

[8] = system: Plasmodium falciparum; experiment: Antiplasmodial activity chloroquine-resistant Plasmodium falciparum Dd2 by lactate dehydrogenase assay; type: functional, organism-based

SMILES	Activity [1]	Activity [2]	IC50 [3]	Activity [4]	Activity [5]	IC50 [6]	selectivity ratio [7]	IC50 [8]
CC(Br)(CBr)Cn1cc(Br)c(=O)c2ccccc21 (stereo unspecified)	inactive	inactive	35.2 µM	inactive	inactive			
CC[C@H]1CN2CCc3cc(OC)c(OC)cc3[C@@H]2C[C@@H]1C[C@H]1NCCc2cc(OC)c(OC)cc21 [EMETINE]						0.092 µM		
CC(Br)(CBr)Cn1cc(Br)c(=O)c2ccc(Cl)cc21 (stereo unspecified)	inactive	inactive	3.18 µM	inactive	inactive	31.8 µM	10	4.02 µM
C[C@H]1[C@H](OC(=O)CCC(=O)O)O[C@@H]2O[C@@]3(C)CC[C@H]4[C@H](C)CC[C@@H]1[C@@]24OO3 [ARTESUNATE]			0.005 µM					0.046 µM
